target: T1, human LPA1 (Homo sapiens, UniProt Q92633); assay: LPA1 functional antagonist assay (calcium flux); type: cell-based; settings: CHO cells overexpressing human LPA1; inhibition of calcium flux induced by 10 nM LPA; read-out: hLPA1 IC50
T1 construct: expressed in transfected cells; host or cells: Chinese hamster ovary (CHO) cells
In short: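 Dye-loaded CHO cells overexpressing human LPA1 (30 min, 37 °C) were preincubated 20 min at room temperature with compound (0.08 nM–5 μM; 0.5% DMSO; HBSS, 20 mM HEPES, 0.1% fatty-acid-free BSA), then stimulated with 10 nM LPA. IC50 is the concentration inhibiting 50% of LPA-induced calcium flux, from a 4-parameter logistic fit.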

T1 sequence (Q92633 whole entry): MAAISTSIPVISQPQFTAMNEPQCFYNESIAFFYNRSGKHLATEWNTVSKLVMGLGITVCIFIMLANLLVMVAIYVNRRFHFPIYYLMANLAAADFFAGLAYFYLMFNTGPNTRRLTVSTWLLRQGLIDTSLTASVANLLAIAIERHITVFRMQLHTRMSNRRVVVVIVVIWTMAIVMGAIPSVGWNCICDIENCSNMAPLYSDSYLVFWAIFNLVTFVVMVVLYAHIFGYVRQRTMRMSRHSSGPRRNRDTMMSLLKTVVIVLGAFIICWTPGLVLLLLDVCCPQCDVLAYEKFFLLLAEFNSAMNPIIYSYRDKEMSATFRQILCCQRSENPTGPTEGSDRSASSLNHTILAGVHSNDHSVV

Row | SMILES | IC50 [nM]
1 | Cc1nc(-c2nnn(C)c2CNc2cc(-c3ccccc3)cnn2)ccc1O[C@H]1CCC[C@H](C(=O)O)C1 [Example 214, (1S,3S)-3-((2-Methyl-6-(1-methyl-5-(((5-phenylpyridazin-3-yl)amino)methyl)-1H-1,2,3-triazol-4-yl)pyridin-3-yl)oxy)cyclohexane-1-carboxylic acid] | 297
2 | Cc1nc(-c2nnn(C)c2CNc2cc(C3CC3)cnn2)ccc1O[C@H]1CCC[C@H](C(=O)O)C1 [Example 215, (1S,3S)-3-((6-(5-(((5-Cyclopropyl-pyridazin-3-yl)amino)methyl)-1-methyl-1H-1,2,3-triazol-4-yl)-2-methylpyridin-3-yl)oxy)cyclohexane-1-carboxylic acid] | 278
3 | Cc1nc(-c2nnn(C)c2CNc2nnc(Cl)cc2C2CC2)ccc1O[C@H]1CCC[C@H](C(=O)O)C1 [Example 216, (1S,3S)-3-((6-(5-(((6-Chloro-4-cyclopropylpyridazin-3-yl)amino)methyl)-1-methyl-1H-1,2,3-triazol-4-yl)-2-methylpyridin-3-yl)oxy) cyclohexane-1-carboxylic acid] | 379
4 | Cc1nc(-c2nnn(C)c2CNc2nnccc2OC2CC2)ccc1O[C@H]1CCC[C@H](C(=O)O)C1 [Example 218, (1S,3S)-3-((6-(5-(((4-Cyclopropoxy-pyridazin-3-yl)amino)methyl)-1-methyl-1H-1,2,3-triazol-4-yl)-2-methylpyridin-3-yl)oxy)cyclohexane-1-carboxylic acid] | 213
5 | Cn1nnc(-c2ccc(O[C@H]3CCC[C@H](C(=O)O)C3)cn2)c1CNc1ncnc(C2CC2)n1 [Example 223, (1S,3S)-3-((6-(5-(((4-cyclopropyl-1,3,5-triazin-2-yl)amino)methyl)-1-methyl-1H-1,2,3-triazol-4-yl)pyridin-3-yl)oxy)cyclohexane-1-carboxylic acid] | 211
6 | CCc1ncnc(NCc2c(-c3ccc(O[C@H]4CCC[C@H](C(=O)O)C4)cn3)nnn2C)n1 [Example 224, (1S,3S)-3-((6-(5-(((4-ethyl-1,3,5-triazin-2-yl)amino)methyl)-1-methyl-1H-1,2,3-triazol-4-yl)pyridin-3-yl)oxy) cyclohexane-1-carboxylic acid] | 813
7 | CCc1nc(CC)nc(NCc2c(-c3ccc(O[C@H]4CCC[C@H](C(=O)O)C4)cn3)nnn2C)n1 [Example 225, (1S,3S)-3-((6-(5-(((4,6-diethyl-1,3,5-triazin-2-yl)amino)methyl)-1-methyl-1H-1,2,3-triazol-4-yl)pyridin-3-yl)oxy)cyclohexane-1-carboxylic acid] | 789
8 | Cc1nc(-c2nnn(C)c2Nc2nccc(OC3CC3)n2)ccc1O[C@H]1CCC[C@H](C(=O)O)C1 [Example 227, (1S,3S)-3-((6-(5-((4-cyclopropoxypyrimidin-2-yl)amino)-1-methyl-1H-1,2,3-triazol-4-yl)-2-methylpyridin-3-yl)oxy)cyclohexane-1-carboxylic acid] | 215
9 | Cc1nc(-c2nnn(C)c2Nc2ccnc(OC3CC3)n2)ccc1O[C@H]1CCC[C@H](C(=O)O)C1 [Example 228, (1S,3S)-3-((6-(5-((2-cyclopropoxypyrimidin-4-yl)amino)-1-methyl-1H-1,2,3-triazol-4-yl)-2-methylpyridin-3-yl)oxy)cyclohexane-1-carboxylic acid] | 215
10 | CCOc1ccnc(Nc2c(-c3ccc(O[C@H]4CCC[C@H](C(=O)O)C4)c(C)n3)nnn2C)n1 [Example 229, (1S,3S)-3-((6-(5-((4-ethoxypyrimidin-2-yl)amino)-1-methyl-1H-1,2,3-triazol-4-yl)-2-methylpyridin-3-yl)oxy)cyclohexane-1-carboxylic acid] | 165
11 | Cc1nc(-c2nnn(C)c2Nc2ccnc(OCC3CC3)n2)ccc1O[C@H]1CCC[C@H](C(=O)O)C1 [Example 233, (1S,3S)-3-((6-(5-((2-(cyclopropyl-methoxy)pyrimidin-4-yl)amino)-1-methyl-1H-1,2,3-triazol-4-yl)-2-methylpyridin-3-yl)oxy)cyclohexane-1-carboxylic acid] | 392

The next compounds have a lower IC50 than those just listed; values first:

Row | IC50 [nM] | SMILES
12 | 97 | Cc1nc(-c2nnn(C)c2CNc2cc(C(C)C)cnn2)ccc1O[C@H]1CCC[C@H](C(=O)O)C1 [Example 217, (1S,3S)-3-((6-(5-(((5-Isopropyl-pyridazin-3-yl)amino)methyl)-1-methyl-1H-1,2,3-triazol-4-yl)-2-methylpyridin-3-yl)oxy)cyclohexane-1-carboxylic acid]
13 | 138 | Cc1nc(-c2nnn(C)c2CNc2cc(OC3CC3)cnn2)ccc1O[C@H]1CCC[C@H](C(=O)O)C1 [Example 219, (1S,3S)-3-((6-(5-(((5-Cyclopropoxy-pyridazin-3-yl)amino)methyl)-1-methyl-1H-1,2,3-triazol-4-yl)-2-methylpyridin-3-yl)oxy)cyclohexane-1-carboxylic acid]
14 | 30 | Cc1nc(-c2nnn(C)c2CNc2cncc(-c3ccccc3)n2)ccc1O[C@H]1CCC[C@H](C(=O)O)C1 [Example 220, (1S,3S)-3-((2-Methyl-6-(1-methyl-5-(((6-phenylpyrazin-2-yl)amino)methyl)-1H-1,2,3-triazol-4-yl)pyridin-3-yl)oxy)cyclohexane-1-carboxylic acid]
15 | 63 | CCCc1ncnc(NCc2c(-c3ccc(O[C@H]4CCC[C@H](C(=O)O)C4)cn3)nnn2C)n1 [Example 221, (1S,3S)-3-((6-(1-methyl-5-(((4-propyl-1,3,5-triazin-2-yl)amino)methyl)-1H-1,2,3-triazol-4-yl)pyridin-3-yl)oxy) cyclohexane-1-carboxylic acid]
16 | 68 | CCCCc1ncnc(NCc2c(-c3ccc(O[C@H]4CCC[C@H](C(=O)O)C4)cn3)nnn2C)n1 [Example 222, (1S,3S)-3-((6-(5-(((4-butyl-1,3,5-triazin-2-yl)amino)methyl)-1-methyl-1H-1,2,3-triazol-4-yl)pyridin-3-yl)oxy)cyclohexane-1-carboxylic acid]
17 | 19 | Cc1nc(-c2nnn(C)c2Nc2cccc(Cc3ccccc3)n2)ccc1O[C@H]1CCC[C@H](C(=O)O)C1 [Example 226, (1S,3S)-3-((6-(5-((6-benzylpyridin-2-yl)amino)-1-methyl-1H-1,2,3-triazol-4-yl)-2-methylpyridin-3-yl)oxy)cyclohexane-1-carboxylicacid]
18 | 11 | CCCc1cccc(Nc2c(-c3ccc(O[C@H]4CCC[C@H](C(=O)O)C4)c(C)n3)nnn2C)n1 [Example 230, (1S,3S)-3-((2-methyl-6-(1-methyl-5-((6-propylpyridin-2-yl)amino)-1H-1,2,3-triazol-4-yl)pyridin-3-yl)oxy) cyclohexane-1-carboxylic acid]
19 | 21 | Cc1nc(-c2nnn(C)c2Nc2cccc(C3CC3)n2)ccc1O[C@H]1CCC[C@H](C(=O)O)C1 [Example 231, (1S,3S)-3-((6-(5-((6-cyclopropyl-pyridin-2-yl)amino)-1-methyl-1H-1,2,3-triazol-4-yl)-2-methylpyridin-3-yl)oxy)cyclohexane-1-carboxylic acid]
20 | 64 | Cc1nc(-c2nnn(C)c2Nc2nccc(OCC3CC3)n2)ccc1O[C@H]1CCC[C@H](C(=O)O)C1 [Example 232, (1S,3S)-3-((6-(5-((4-(cyclopropyl-methoxy)pyrimidin-2-yl)amino)-1-methyl-1H-1,2,3-triazol-4-yl)-2-methylpyridin-3-yl)oxy)cyclohexane-1-carboxylic acid]
21 | 88 | Cc1nc(-c2nnn(C)c2Nc2cc(C3CC3)ccn2)ccc1O[C@H]1CCC[C@H](C(=O)O)C1 [Example 234, (1S,3S)-3-((6-(5-((4-cyclopropyl-pyridin-2-yl)amino)-1-methyl-1H-1,2,3-triazol-4-yl)-2-methylpyridin-3-yl)oxy)cyclohexane-1-carboxylic acid]
22 | 23 | CCCc1ccnc(Nc2c(-c3ccc(O[C@H]4CCC[C@H](C(=O)O)C4)c(C)n3)nnn2C)n1 [Example 235, (1S,3S)-3-((2-methyl-6-(1-methyl-5-((4-propylpyrimidin-2-yl)amino)-1H-1,2,3-triazol-4-yl)pyridin-3-yl)oxy) cyclohexane-1-carboxylic acid]
23 | 10 | CCCCc1cccc(Nc2c(-c3ccc(O[C@H]4CCC[C@H](C(=O)O)C4)c(C)n3)nnn2C)n1 [Example 236, (1S,3S)-3-((6-(5-((6-butylpyridin-2-yl)amino)-1-methyl-1H-1,2,3-triazol-4-yl)-2-methylpyridin-3-yl)oxy)cyclohexane-1-carboxylic acid]
24 | 55 | Cc1nc(-c2nnn(C)c2Nc2cccc(OCc3ccccc3)n2)ccc1O[C@H]1CCC[C@H](C(=O)O)C1 [Example 237, (1S,3S)-3-((6-(5-((6-(benzyloxy)pyridin-2-yl)amino)-1-methyl-1H-1,2,3-triazol-4-yl)-2-methylpyridin-3-yl)oxy)cyclohexane-1-carboxylic acid]
25 | 53 | CCCOc1nccc(Nc2c(-c3ccc(O[C@H]4CCC[C@H](C(=O)O)C4)c(C)n3)nnn2C)n1 [Example 238, (1S,3S)-3-((2-methyl-6-(1-methyl-5-((2-propoxypyrimidin-4-yl)amino)-1H-1,2,3-triazol-4-yl)pyridin-3-yl)oxy)cyclohexane-1-carboxylic acid]
26 | 50 | CCCOc1ccnc(Nc2c(-c3ccc(O[C@H]4CCC[C@H](C(=O)O)C4)c(C)n3)nnn2C)n1 [Example 239, (1S,3S)-3-((2-methyl-6-(1-methyl-5-((4-propoxypyrimidin-2-yl)amino)-1H-1,2,3-triazol-4-yl)pyridin-3-yl)oxy) cyclohexane-1-carboxylic acid]
27 | 57 | CCOc1cccc(Nc2c(-c3ccc(O[C@H]4CCC[C@H](C(=O)O)C4)c(C)n3)nnn2C)n1 [Example 240, (1S,3S)-3-((6-(5-((6-ethoxypyridin-2-yl)amino)-1-methyl-1H-1,2,3-triazol-4-yl)-2-methylpyridin-3-yl)oxy) cyclohexane-1-carboxylic acid]

Reference: patent publication US11267800B2, “Cyclohexyl acid triazole azines as LPA antagonists” (BRISTOL-MYERS SQUIBB COMPANY, priority 2017, dated 2022)
